Read-outs that look alike come from different tables or passages of the source.
System: Drosophila
Type: in vivo
Experimental: Fresh vials containing standard fly food supplemented with the indicated treatments were changed out every 2 days. The number of flies surviving each day was counted and log-rank tests were performed to determine statistical significance. 20 flies per treatment, n=5 (c) The climbing ability of flies treated as described in (a and bin) was assessed 4 days following initial administration of treatments. The number of flies to climb beyond 9.5 cm every 10 seconds was assessed. The percentage of flies in each treatment to cross this line was determined. The climbing ability of each treatment was normalized to the control group treated with water only. 20 flies per treatment, n=5. (d) The climbing ability of UAS-park^RNAi and ddc-GAL4>UAS-park^RNAi flies fed either paraquat or paraquat in combination with SR3677. 20 flies per treatment, n=7. (e) Proteins lysates from UAS-park^RNAi or tubulin>UAS-park^RNAi whole flies were separated by SDS-PAGE. Immunoblotting with anti-Parkin and anti-actin antibody was performed. (f) The climbing ability of TH-GAL flies fed either paraquat or paraquat in combination with SR3677. (g) Survival of heteroplasmic mt:Coll^T300l flies fed fly food supplemented with water or 2 mM SR3677 and wild-type Canton(S) flies (n=3 independent experiments). (h) The climbing ability of heteroplasmic mt:Coll^T300l flies fed either water or 2 mM SR3677 for 7 days. Log-rank tests were performed to determine p-values for survival analyses (a, b, g), *P<0.05. P-values were determined by one-tailed paired student's t-test for all climbing assays (c-e, h), *P<0.05. Data is expressed as mean±s.e.m. All error bars represent s.e.m
Male Canton(S) Drosophila were aged 7 days prior to feeding with standard fly food supplemented with water, 10 mM paraquat, 1 mM SR3677, or with combinations of these chemicals. Flies were placed into new vials containing fresh food supplemented with the treatments previously administered and 2 days later, climbing assays were performed. Flies were placed into plastic cylinder vials and tapped down, so all flies fell to the bottom. The number of flies to climb beyond 12.5 cm was counted every 10 s and values are represented as the percentage of total flies in each treatment group.

CN(C)CCOc1cc(-c2cn[nH]c2)ccc1NC(=O)[C@@H]1COc2ccccc2O1 [SR3677]
climbing ability of paraquat-treated flies (Canton(S), 1 mM SR3677 with 10 mM paraquat): restores climbing ability | climbing ability with paraquat (TH-GAL4, UAS-rok^RNAi flies): No further improvement to climbing ability | climbing ability with paraquat (UAS-park^RNAi flies): improved | paraquat-induced climbing defects (ddc-GAL4>UAS-park^RNAi flies): no improvement

Reference: patent US20220074923A1, “METHODS OF IDENTIFYING PARKIN-MEDIATED MITOPHAGY ACTIVATING AGENTS” (THE GOVERNING COUNCIL OF THE UNIVERSITY OF TORONTO, priority 2018, published 2022)
